Source: publication PMC4846432 (Science Advances, 2016)

Legend:
[1] = biological target: T1, mouse P-gp (Mus musculus, UniProt P21447, N83Q/N87Q/N90Q); assay: Yeast chemosensitization; type: cell-based; settings: for IYeast, inhibition in the yeast cytotoxicity assay: P-gp-expressing yeast, +10 μM DOX; for Chemosensitizing effect on P-gp-expressing yeast toward DOX (in words): cellular assay
[2] = biological target: T1, mouse P-gp; assay: biochemical
[3] = biological target: T1, mouse P-gp; settings: endrin vs its stereoisomer dieldrin

T1 sequence (P21447 whole entry N83Q/N87Q/N90Q): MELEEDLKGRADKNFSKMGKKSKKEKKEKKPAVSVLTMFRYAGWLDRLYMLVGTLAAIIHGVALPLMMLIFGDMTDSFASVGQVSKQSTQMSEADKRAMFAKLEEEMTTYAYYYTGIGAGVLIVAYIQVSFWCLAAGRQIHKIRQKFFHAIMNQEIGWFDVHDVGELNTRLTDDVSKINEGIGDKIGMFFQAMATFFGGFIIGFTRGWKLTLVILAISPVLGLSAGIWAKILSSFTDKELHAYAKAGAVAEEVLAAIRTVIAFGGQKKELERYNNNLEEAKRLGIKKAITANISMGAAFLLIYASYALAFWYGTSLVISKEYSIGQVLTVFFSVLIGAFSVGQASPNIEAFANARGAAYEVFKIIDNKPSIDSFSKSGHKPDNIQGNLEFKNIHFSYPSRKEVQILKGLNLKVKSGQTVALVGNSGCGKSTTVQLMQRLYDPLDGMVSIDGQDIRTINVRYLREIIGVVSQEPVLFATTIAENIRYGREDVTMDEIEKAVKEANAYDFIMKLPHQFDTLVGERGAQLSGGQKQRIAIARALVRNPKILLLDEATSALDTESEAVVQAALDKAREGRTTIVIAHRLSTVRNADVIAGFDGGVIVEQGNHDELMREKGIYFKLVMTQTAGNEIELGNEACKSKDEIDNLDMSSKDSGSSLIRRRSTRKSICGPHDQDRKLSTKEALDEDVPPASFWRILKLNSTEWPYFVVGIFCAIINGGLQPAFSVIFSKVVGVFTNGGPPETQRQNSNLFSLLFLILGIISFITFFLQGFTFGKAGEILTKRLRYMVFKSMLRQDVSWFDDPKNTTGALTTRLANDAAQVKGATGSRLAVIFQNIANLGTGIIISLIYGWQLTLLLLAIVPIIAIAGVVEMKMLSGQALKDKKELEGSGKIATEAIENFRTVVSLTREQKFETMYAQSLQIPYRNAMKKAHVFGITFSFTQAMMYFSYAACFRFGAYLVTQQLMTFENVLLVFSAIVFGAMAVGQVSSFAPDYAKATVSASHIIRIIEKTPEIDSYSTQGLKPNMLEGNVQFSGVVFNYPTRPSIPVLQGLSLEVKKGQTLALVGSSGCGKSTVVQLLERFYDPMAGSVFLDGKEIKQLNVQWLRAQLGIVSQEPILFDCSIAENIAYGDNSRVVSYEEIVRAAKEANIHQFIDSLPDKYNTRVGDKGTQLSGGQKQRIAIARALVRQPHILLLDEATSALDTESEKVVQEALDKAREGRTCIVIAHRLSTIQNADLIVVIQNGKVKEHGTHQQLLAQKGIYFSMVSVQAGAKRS

Structure (SMILES)	IYeast, inhibition in the yeast cytotoxicity assay [1]	IC50 [2] [µM]	Chemosensitizing effect on P-gp-expressing yeast toward DOX (in words) [1]	Potency in ATPase assay relative to dieldrin [3] [times]
ClC1(Cl)C2(Cl)C3(Cl)C4(Cl)C(Cl)(Cl)C5(Cl)C3(Cl)C1(Cl)C5(Cl)C24Cl (stereo not shown) [Mirex]	N	3		
Cl[C@H]1[C@H](Cl)[C@H](Cl)[C@@H](Cl)[C@H](Cl)[C@H]1Cl [α-HCH, α-hexachlorocyclohexane]	N	26.8		
Clc1ccc(-c2c(Cl)c(Cl)cc(Cl)c2Cl)c(Cl)c1 [PCB-147]	Y			
Brc1ccc(Oc2c(Br)cc(Br)cc2Br)c(Br)c1 [PBDE-100]	Y	23.2		
COc1ccc(C(c2ccc(OC)cc2)C(Cl)(Cl)Cl)cc1 [Methoxychlor]	N	21.7		
ClC1=C(Cl)C2(Cl)C3C4CC(C5OC45)C3C1(Cl)C2(Cl)Cl (stereo not shown) [Endrin]	Y	1.1	most pronounced chemosensitizing effect	~20
Clc1ccc(-c2cc(Cl)c(Cl)cc2Cl)cc1Cl [PCB-118]	N			
O=S(=O)(O)C(F)(F)C(F)(F)C(F)(F)C(F)(F)C(F)(F)C(F)(F)C(F)(F)C(F)(F)F [PFOS, perfluorooctane sulfonate]	N			
ClC(Cl)=C(c1ccc(Cl)cc1)c1ccc(Cl)cc1 [4,4′-DDE, dichlorodiphenyldichloroethylene]	Y	31.3		
Clc1cccc(Cl)c1-c1c(Cl)c(Cl)c(Cl)c(Cl)c1Cl [PCB-186]	N			
ClC1=C(Cl)[C@]2(Cl)[C@@H]3[C@@H]4C[C@@H]([C@H]5O[C@@H]45)[C@@H]3[C@@]1(Cl)C2(Cl)Cl [Dieldrin]	Y	21.8	markedly lower inhibitory effect	
ClC1=C(Cl)C2(Cl)C3C4C=CC(C4)C3C1(Cl)C2(Cl)Cl (stereo not shown) [Aldrin]	Y	26.2		
Clc1cc(Cl)c(-c2cc(Cl)c(Cl)c(Cl)c2)c(Cl)c1 [PCB-168]	N			
CCCCC(CC)COC(=O)c1ccccc1C(=O)OCC(CC)CCCC (stereo not shown) [DEHP, di(2-ethylhexyl)phthalate]	N			
Clc1cc(Cl)c(-c2cc(Cl)c(Cl)cc2Cl)c(Cl)c1 [PCB-154]	N			
Clc1cc(Cl)c(-c2cc(Cl)c(Cl)cc2Cl)cc1Cl [PCB-153]	N			
Clc1cc(Cl)cc(-c2c(Cl)cc(Cl)c(Cl)c2Cl)c1 [PCB-161]	N			
Brc1ccc(Oc2cc(Br)ccc2Br)c(Br)c1 [PBDE-49]	Y			
Brc1c(Br)c(Br)c(Oc2c(Br)c(Br)c(Br)c(Br)c2Br)c(Br)c1Br [PBDE-209]	N			
Cl[C@H]1[C@H](Cl)[C@@H](Cl)[C@H](Cl)[C@@H](Cl)[C@@H]1Cl [β-HCH, β-hexachlorocyclohexane]	N			
Clc1cc(Cl)c(-c2c(Cl)cccc2Cl)c(Cl)c1Cl [PCB-145]	Y			
O=C(O)C(F)(F)C(F)(F)C(F)(F)C(F)(F)C(F)(F)C(F)(F)C(F)(F)F [PFOA, perfluorooctanoic acid]	N	156		
CC(C)(c1ccc(O)cc1)c1ccc(O)cc1 [Bisphenol A]	N			
Clc1ccccc1-c1c(Cl)c(Cl)c(Cl)c(Cl)c1Cl [PCB-142]	Y			
ClC1=C(Cl)C2(Cl)C3C(Cl)C=CC3C1(Cl)C2(Cl)Cl (stereo not shown) [Heptachlor]	N	10.4		
Clc1cc(-c2cc(Cl)c(Cl)c(Cl)c2)cc(Cl)c1Cl [PCB-169]	N			
Cl[C@H]1[C@H](Cl)[C@@H](Cl)[C@@H](Cl)[C@H](Cl)[C@H]1Cl [γ-HCH (lindane), lindane]	N	82.6		
Brc1ccc(Oc2ccccc2)cc1 [PBDE-3]	N			
Clc1cc(Cl)c(Cl)c(-c2c(Cl)cccc2Cl)c1Cl [PCB-152]	N			
